One assay deals with ACAT. The settings on record: rabbit arterial microsomes; Hudson H., Day A., Atherosclerosis (1982) 45, 109; cited from earlier work.
The nature of assay [1]: Serum lipid lowering in male rats on standard diet (Table 1, activity as % variation vs. controls). The class given is in vivo, Iva:SDIV (SPF) male rats. The settings on record: rat, 50 mg/kg/os, 4 days by stomach tube, * p ≤ 0.05, ** p ≤ 0.01; for Triglycerides, activity as % variation vs. controls: serum triglycerides; for Tot. Chol., activity as % variation vs. controls: total serum cholesterol. On the procedure:
The activity of compounds of this invention was evaluated on Groups of Iva:SDIV (SPF) male rats fed standard diet (Altromin^R).
The compounds were suspended in "Methocel" (methyl cellulose, a 0.5% pseudosolution in water) and administered by stomach tube for 4 days.
Groups of animals were treated with the suspending agent only (control groups).
The total serum cholesterol was determined with the method of Allain C. C. (Clin. Chem. 20, 470, 1974).
The serum triglycerides were determined with the method of Spayd R. N. (Clin. Chem. 24, 1343, 1978).
The total serum HDL cholesterol was determined according to Demacker P. N. M. [Clin. Chem., 23, 1238 (1977)].
W. - J. Amer. Stat. Ass., 50, 1096 (1955)].

The target of assay [2] is T1, acyl CoA: cholesterol acyltransferase (ACAT-EC 2.3.1.26) (Oryctolagus cuniculus, UniProt A0A5F9CPP4).
T1 construct: microsomal preparations from atherosclerotic rabbit thoracic aorta (intimamedia); from tissue; host or cells: microsomes of atherosclerotic rabbit thoracic aorta (intima-media)
T1 sequence (A0A5F9CPP4 1-555): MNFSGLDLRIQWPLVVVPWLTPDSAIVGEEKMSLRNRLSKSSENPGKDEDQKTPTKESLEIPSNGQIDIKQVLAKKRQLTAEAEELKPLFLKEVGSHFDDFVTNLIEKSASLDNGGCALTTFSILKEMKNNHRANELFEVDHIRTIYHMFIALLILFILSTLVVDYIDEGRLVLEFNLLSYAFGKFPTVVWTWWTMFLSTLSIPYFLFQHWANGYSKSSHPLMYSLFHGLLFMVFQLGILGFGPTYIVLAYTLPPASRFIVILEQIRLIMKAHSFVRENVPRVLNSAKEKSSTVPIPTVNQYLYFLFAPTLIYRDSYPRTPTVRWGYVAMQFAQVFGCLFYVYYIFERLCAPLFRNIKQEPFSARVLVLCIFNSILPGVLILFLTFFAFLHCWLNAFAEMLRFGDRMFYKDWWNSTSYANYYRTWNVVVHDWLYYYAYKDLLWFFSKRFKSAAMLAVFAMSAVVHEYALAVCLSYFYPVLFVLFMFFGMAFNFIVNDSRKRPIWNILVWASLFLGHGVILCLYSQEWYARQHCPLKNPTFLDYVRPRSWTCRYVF
The assay is described as follows: ACAT inhibition in microsomes from atherosclerotic rabbit thoracic aortas (Table 2). Type of assay: biochemical.

As usually defined, the IC50 is the point on the concentration scale where inhibition reaches its midpoint.

Take `CC(C)(Oc1ccc(CCNC(=O)c2ccc(Cl)cc2)cc1)C(=O)O` [Bezafibrate]: the “inhibitory activity in vitro (in words)” value in the assay on ACAT is recorded as “inhibitory activity in vitro (rabbit arterial microsomes) has been already demonstrated”.
Take `CCOC(=O)C(C)(C)Oc1ccc(Cl)cc1` [Clofibrate, reference compound]: in assay [1], the “HDL/LDL + VLDL Chol. ratio, activity as % variation vs. controls” value is reported as “+18%”; the “LDL + VLDL Chol., activity as % variation vs. controls” value is given as -19%; the “Triglycerides, activity as % variation vs. controls” value is -22%; the “Tot. Chol., activity as % variation vs. controls” value is recorded as -11%.
For `CCOC(=O)C(C)(C)CCCOc1ccc2c(c1)C=C(c1nccn1C)C(C)O2` (stereo not drawn) [FCE 25086, ethyl 5-[2-methyl-3-(1-methyl-1H-imidazol-2-yl)-2H-1-benzopyran-6yl]oxy-2,2-dimethylpentanoate], in that order: “+135%”, -55%, -53% and -14%.
As to `CCOC(=O)C(C)(C)CCCOc1ccc2c(c1)C=C(c1nccn1C)CC2` [FCE 25390, ethyl 5-[5,6-dihydro-7-(1-methyl-1H-imidazol-2-yl)naphthalen-2yl]oxy-2,2-dimethylpentanoate], in assay [1], the “HDL/LDL + VLDL Chol. ratio, activity as % variation vs. controls” value was “+96%”; the “LDL + VLDL Chol., activity as % variation vs. controls” value is reported as -59%; the “Triglycerides, activity as % variation vs. controls” value is on record as -58%; the “Tot. Chol., activity as % variation vs. controls” value is reported as -36%.
On to `CCCC1Oc2ccc(OCCCC(C)(C)C(=O)OCC)cc2C=C1c1nccn1C` (stereo not drawn) [FCE 25184, ethyl 5-[3-(1-methyl-1H-imidazol-2-yl)-2-n-propyl-2H-1-benzopyran-6-yl]oxy-2,2-dimethylpentanoate], for which half-maximal inhibition in assay [2] (microsomes from atherosclerotic rabbit thoracic aortas (intimamedia), limits p = 0.95) (IC50) required 1060 nM. Moreover, the “potency in ACAT inhibition relative to Bezafibrate (times more potent)” value in assay [2] (ratio of IC50 values, vs. Bezafibrate) is reported as “about 500 times”.

Source of the values: US4985440A, “Hypolipidaemic imidazol-2-yl-derivatives of bicyclic compounds” (priority 1988, dated 1991).
